Patent publication US20250304705A1, “BIOTIN ORTHOGONAL STREPTAVIDIN SYSTEM” (UNIVERSITY OF UTAH RESEARCH FOUNDATION, priority 2022, published 2025)

Experiments:
[1] = target: T1, L-SA (recombinant SA, Novus Biologicals) (Streptomyces avidinii, UniProt P22629); assay: isothermal titration calorimetry (ITC), biotin enantiomer titrated into recombinant L-SA; format: binding; details: fit using Origin software
T1 construct: purchased Novus Biologicals
Experimental: First, a control isothermal titration calorimetry (ITC) experiment was performed.

D-SA = assay: binding of D-biotin to D-SA, by mirror-image symmetry from L-biotin/L-SA ITC; details: orthogonality, inferred by mirror-image symmetry
Source text: As detailed herein, mirror-image SA and biotin (D-SA/L-biotin) offer an elegant solution to circumvent the limitations encountered with L-SA/D-biotin systems. For example, D-proteins are inert to L-proteases and therefore cannot be digested for MHC presentation to the immune system. […] Therefore, it is proposed that D-SA/L-biotin can be used as a biotin orthogonal streptaviding system (BOSS). Without wishing to be bound by theory, it is hypothesized that the orthogonality of BOSS, along with D-SA's low immunogenicity, will overcome the limitations of natural SA/biotin.
First, a control isothermal titration calorimetry (ITC) experiment was performed. […] This titration data was fit using Origin software to calculate binding stoichiometry (N=0.97±0.003 sites) and enthalpy (ΔH=−27.72±0.18 kcal/mol), as shown in FIG. 2A.

T1 sequence (P22629 37-163): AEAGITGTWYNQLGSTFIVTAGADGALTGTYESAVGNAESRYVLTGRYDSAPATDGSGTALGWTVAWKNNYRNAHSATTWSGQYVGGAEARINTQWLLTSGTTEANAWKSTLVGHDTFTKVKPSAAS

O=C(O)CCCC[C@@H]1SC[C@@H]2NC(=O)N[C@@H]21 [D-biotin]
enthalpy (ΔH) [1]: -27.72 ± 0.18 kcal/mol | binding to D-SA (D-SA): minimal binding
